Reference: the SangsterLogP compilation

Legend:
[1] = method code SF, from DOI: 10.1016/0378-5173(90)90261-2; conditions: pH 3.0
[2] = method code SF, from DOI: 10.1248/cpb.18.708; conditions: pH 6.4
[3] = method code SF-AS, from DOI: 10.1211/0022357001773940, PMID: 10757413; conditions: pH 7.4
[4] = method code SF, from PMID: 7429676; conditions: pH 7.4
[5] = method code SF-AS, from PMID: 3774812; conditions: pH 4.0
[6] = not given; remark: listed apart in the source
[7] = method code SF-HPLC, from DOI: 10.1002/hlca.19880710534; conditions: pH 7.4
[8] = not given; remark: listed apart in the source
[9] = method code SF-AS, from DOI: 10.1021/jf60217a021, PMID: 659709
[10] = method code SF-AS, from DOI: 10.1016/s0090-9556(25)07961-9, PMID: 6130927
[11] = method code SF-RC, from DOI: 10.1021/jm00360a016, PMID: 6854590
[12] = not given; remark: listed apart in the source
[13] = method code SF-AS, from DOI: 10.1081/jlc-100101494
[14] = from Villegas-Navarro, A.; Rodriguez, M. (1984). Structure-activity relationships between quinone moieties and inhibition of sodium transport. In Kuchar, M. (Ed.) QSAR in Design of Bioactive Compounds. …
[15] = method code SF-AS, from DOI: 10.1021/jf60167a006
[16] = not given; remark: listed apart in the source
[17] = method code SF-HPLC, from DOI: 10.1124/dmd.30.12.1497, PMID: 12433825; conditions: pH 7.4
[18] = from Tehrany, E.A.; Desobry, S. (2005). Comparison between the different calculation methods of partition coefficient of aroma compounds with a difference chemical classes in octanol/water system. …
[19] = method code SF-AS, from DOI: 10.1021/jm00128a017, PMID: 2754702; conditions: pH 7.4
[20] = not given; remark: listed apart in the source
[21] = method code SF-AS, from DOI: 10.1021/jm00212a022, PMID: 836502
[22] = not given; remark: listed apart in the source
[23] = method code SF-AS, from DOI: 10.1139/y89-042, PMID: 2547502; conditions: pH 7.4
[24] = method code …, from Kristl, A.; Vesnaver, G.; Mrhar, A.; Kozjek, F. (1993). Evaluation of partitioning and solubility data for some guanine derivatives in terms of mutual miscibility of octanol and water phase. …; conditions: pH 5.2
[25] = method code SF-AS, from DOI: 10.1016/j.bmc.2011.10.017, PMID: 22094277; conditions: pH 7.4
[26] = not given; remark: listed apart in the source
[27] = not given; remark: listed apart in the source
[28] = method code SF-GLC, from DOI: 10.1007/s002679900238, PMID: 10486045
[29] = method code SF-AS, from DOI: 10.1080/10826079508009280; conditions: pH 7.0
[30] = not given; remark: listed apart in the source
[31] = not given; remark: listed apart in the source
[32] = method code SF, from DOI: 10.1248/cpb.42.1525, PMID: 7923475
[33] = method code SF-AS, from DOI: 10.1021/jf950378u
[34] = method code SF-HPLC, from DOI: 10.1021/jm00109a018, PMID: 2033591; conditions: pH 7.0
[35] = not given; remark: listed apart in the source
[36] = method code SF-AS, from Brown, J.; Yu, N.; Cory, M.; Bicknell, R.; Taylor, D. (1978). In vivo evaluation of the radiosensitizing and cytotoxic properties of newly synthesized electron-affinic drugs. 3, 206-211.
[37] = method code SF-AS, from DOI: 10.1021/jf60220a002
[38] = method code SF-AS, from Korenman, Y. (1973). Extraction of p-halophenols. Zh. Prikl. Khim., 46(11)2754-2755.; conditions: pH 7.4
[39] = method code SF-AS, from DOI: 10.2307/3575639, PMID: 7313077; conditions: pH 7.4
[40] = not given; remark: listed apart in the source
[41] = pH 4.3
[42] = method code SF, from PMID: 3261785
[43] = method code SF-RC, from DOI: 10.1016/j.nucmedbio.2014.03.023, PMID: 24768149; conditions: pH 7.4
[44] = method code SF, from PMID: 23342302; conditions: pH 7.4
[45] = not given; remark: listed apart in the source
[46] = not given; remark: listed apart in the source
[47] = method code SF-GLC, from DOI: 10.1016/0045-6535(95)00311-u
[48] = method code SF-AS, from DOI: 10.1016/0006-2952(80)90068-4, PMID: 6775639
[49] = method code SF-CR, from PMID: 15170; conditions: pH 3.0
[50] = method code SF-HPLC, from DOI: 10.1002/jps.22717, PMID: 21837649; conditions: pH 7.4

## Cc1cn([C@H]2O[C@@H](CO)[C@H](O)[C@H]2F)c(=O)[nH]c1=O
other
  logP: -0.51

## O=C(O)CCCc1ccccc1
[1]
  logD: 2.32

## COc1ccc(NS(=O)(=O)c2ccc(N)cc2)nn1
[2]
  logD: 0.4

## Cc1c(O)c(=O)ccn1CCc1c[nH]cn1
[3]
  logD: -0.05

## CC(O)Cn1cnc2c1c(=O)n(C)c(=O)n2C (stereo unspecified)
[4]
  logD: -0.77

## Cc1c(CC(=O)O)sc2ccc(Cl)cc12
[5]
  logD: 3.12

## OC[C@@H]1C[C@@H](F)[C@H](n2cnc3c(F)ncnc32)O1
[6]
  logP: 0.06

## C=CCC1(C(=O)NC(N)=O)CC(C)OC1=O (stereo unspecified)
[7]
  logD: 0.36

## CN(C)/N=N/c1ccc(CC(=O)O)cc1
[8]
  logP: 1.38

## COC(=O)N(C)SN(C)C(=O)O/N=C(\SC)C(=O)N(C)C
[9]
  logP: -0.07

## CCC(N)Cc1ccccc1 (stereo unspecified)
[10]
  logP: 2.28

## O=c1ccc2ccc3occc3c2o1
[11]
  logP: 2.08

## C=C(C)C(=O)OC1CCCCC1
[12]
  logP: 2.98

## CC1(Br)C(=O)NC(=O)N2C3CC(N=[N+]=[N-])C(COC21)O3 (stereo unspecified)
[13]
  logP: 1.11

## CC1=CC(=O)C(C(C)C)=CC1=O
[14]
  logP: 2.2

## CCOP(=S)(OCC)Oc1ccccc1
[15]
  logP: 3.46

## CN(C)C(=O)CNCc1ccccc1
[16]
  logP: 1.11

## CN1C(=O)CC(c2ccccc2)C1=O (stereo unspecified)
[17]
  logD: 0.68

## CCCCCCCCCC(=O)O
[18]
  logP: 3.91

## Nc1nc2c(ncn2C2CC(O)C(CO)O2)c(=O)[nH]1 (stereo unspecified)
[19]
  logD: -1.3

## CCC(Oc1ccc(Cl)cc1C)C(=O)O (stereo unspecified)
[20]
  logP: 3.47

## CCCOc1cc(N)ccc1C(=O)O
[21]
  logP: 1.53

## NC12CC3CC(CC(C3)C1)C2
[22]
  logP: 2.54

## Nc1ncnc2c1nc(Br)n2[C@@H]1O[C@@H]2COP(=O)(O)O[C@H]2[C@H]1O
[23]
  logD: -2.44

## CC(=O)Nc1nc2c(ncn2COCCO)c(=O)[nH]1
[24]
  logD: -1.3

## CCCOC(=O)[C@@]1(C)[C@H](CO)CC=[N+]1[O-]
[25]
  logD: -0.82

## CCCCc1ccc(C(=O)O)cc1
[26]
  logP: 3.7

## Cc1noc(NS(=O)(=O)c2ccc(N)cc2)c1C
[27]
  logP: 0.83

## C=C(C)C1CCC(C)(O)C1C (stereo unspecified)
[28]
  logP: 2.87

## Nc1nc(Cl)nc2c1ncn2[C@@H]1O[C@H](CO)[C@@H](O)[C@@H]1F
[29]
  logD: 0.5

## CCNc1nc(NC(C)(C)C)nc(SC)n1
[30]
  logP: 3.43

## O=C(O)CNC(=O)OCc1ccccc1
[31]
  logP: 1.47

## CCCC(=O)c1ccccc1
[32]
  logP: 2.66

## COC(=O)/C=C/c1ccc(O)c(OC)c1
[33]
  logP: 1.2

## Cc1nc2c(N)ncnc2n1[C@@H]1O[C@H](CO)C[C@@H]1F
[34]
  logD: 0.1

## C1COCCOCCOCCOCCO1
[35]
  logP: -0.48

## CC(=O)OCC(Cn1ccnc1[N+](=O)[O-])OC(C)=O (stereo unspecified)
[36]
  logP: -0.05

## CCOP(N)(=O)O/N=C(/C#N)c1ccccc1 (stereo unspecified)
[37]
  logP: 0.72

## C=CCC1(CC(=C)Br)C(=O)NC(=O)N(C)C1=O (stereo unspecified)
[38]
  logD: 1.78

## CN(C)C(=O)c1cc(N2CC2)c([N+](=O)[O-])cc1[N+](=O)[O-]
[39]
  logD: 0.63

## Cc1[nH]cnc1CSCCNc1cc[nH]c(=O)n1
[40]
  logP: -0.4

## Nc1ccc(S(=O)(=O)Nc2ncccn2)cc1
[41]
  logD: -0.04

## Cc1c(I)c(=O)n(-c2ccccc2)n1C
[42]
  logP: 1.27

## FCCOC1CCC=CCCC1 (stereo unspecified)
[43]
  logD: 1.68

## Nc1nc(=O)c2ncn(CCC(CO)CF)c2[nH]1 (stereo unspecified)
[44]
  logD: -0.87

## COc1ccc(NC(=O)C2CC2)cn1
[45]
  logP: 1.57

## CCC1(CC(C)C)C(=O)NC(=O)NC1=O
[46]
  logP: 1.69

## CCCCCCCCC(Cl)C(Cl)(Cl)Cl (stereo unspecified)
[47]
  logP: 5.93

## CC1=CC(=O)c2ccccc2C1=O
[48]
  logP: 1.88

## CCc1nnc(NS(=O)(=O)c2ccc(N)cc2)s1
[49]
  logD: 1.01

## CCN1CCCc2cc(F)ccc21
[50]
  logD: 2.82
